Measurements published in patent US9738634B2, “Heterocyclic amide compound and herbicide” (SYNGENTA PARTICIPATIONS AG, priority 2013, dated 2017).

Experiments:
Format in all cases: in vivo
bulrush [1] = test: Test Example 2: weedkilling efficacy, growth period weed treatment in the submerged state; B: bulrush; settings: treatment dosage 252 g/ha
Summary of the method: (§1)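 First, alluvial soil in pots is flooded to 4 cm and mixed seed is sown. Next, plants grow in a greenhouse at 25 to 30° C until the 1-2 leaf stage. Then diluted emulsion is applied onto the water surface at the given g/ha rate, and injury is assessed after 3 weeks.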

bulrush [2] = test: Test Example 1: weedkilling efficacy, preemergent weed treatment in the submerged state; B: bulrush; settings: treatment dosage 252 g/ha
Summary of the method: (§2)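 Emulsion diluted with water to the specified per-hectare dosage is applied onto flood water (4 cm) over alluvial soil on the sowing day, with barnyard grass, bulrush and pondweed seeded and rice (2.5-leaf) transplanted; plants grow at 25–30 °C and are rated at 3 weeks.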

directly sown rice [3] = test: Test Example 4: foliar treatment, effect on crop; b: directly sown rice; settings: treatment dosage 315 g/ha
Summary of the method: (§3)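 Seeds are spot-sown into sterilized diluvial soil and covered with about 1.5 cm of soil. After 14 days' greenhouse growth at 25 to 30° C, plants are sprayed on stems and leaves with diluted emulsion at the stated g/ha rate, then scored at 3 weeks.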

black-grass [4] = test: Test Example 4: weedkilling efficacy by foliar treatment; H: black-grass; settings: treatment dosage 315 g/ha
Summary of the method: as §3

Indian mallow [5] = test: Test Example 3: weedkilling efficacy through soil treatment; K: Indian mallow; settings: treatment dosage 315 g/ha
Summary of the method: (§4)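 Crop and weed responses were judged three weeks after a uniform surface spray of the water-diluted emulsion at the given g/ha rate. Seeds sat beneath about 1.5 cm of sterilized diluvial soil, and boxes stood in a greenhouse at 25 to 30° C.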

beet [6] = test: Test Example 4: foliar treatment, effect on crop; f: beet; settings: treatment dosage 315 g/ha
Summary of the method: as §3

wheat [7] = test: Test Example 3: soil treatment, effect on crop; e: wheat; settings: treatment dosage 315 g/ha
Summary of the method: as §4

transplanted rice = test: Test Example 1: preemergent weed treatment in the submerged state, effect on crop; a: transplanted rice; settings: treatment dosage 252 g/ha
Summary of the method: as §2

fig-leafed goosefoot [8] = test: Test Example 3: weedkilling efficacy through soil treatment; M: fig-leafed goosefoot; settings: treatment dosage 315 g/ha
Summary of the method: as §4

fig-leafed goosefoot [9] = test: Test Example 4: weedkilling efficacy by foliar treatment; M: fig-leafed goosefoot; settings: treatment dosage 315 g/ha
Summary of the method: as §3

beet [10] = test: Test Example 3: soil treatment, effect on crop; f: beet; settings: treatment dosage 315 g/ha
Summary of the method: as §4

soybean [11] = test: Test Example 3: soil treatment, effect on crop; d: soybean; settings: treatment dosage 315 g/ha
Summary of the method: as §4

Italian ryegrass [12] = test: Test Example 3: weedkilling efficacy through soil treatment; I: Italian ryegrass; settings: treatment dosage 315 g/ha
Summary of the method: as §4

chickweed [13] = test: Test Example 4: weedkilling efficacy by foliar treatment; N: chickweed; settings: treatment dosage 315 g/ha
Summary of the method: as §3

oval-leafed pondweed [14] = test: Test Example 2: weedkilling efficacy, growth period weed treatment in the submerged state; C: oval-leafed pondweed; settings: treatment dosage 252 g/ha
Summary of the method: as §1

corn [15] = test: Test Example 4: foliar treatment, effect on crop; c: corn; settings: treatment dosage 315 g/ha
Summary of the method: as §3

directly sown rice [16] = test: Test Example 3: soil treatment, effect on crop; b: directly sown rice; settings: treatment dosage 315 g/ha
Summary of the method: as §4

green foxtail [17] = test: Test Example 3: weedkilling efficacy through soil treatment; E: green foxtail; settings: treatment dosage 315 g/ha
Summary of the method: as §4

chickweed [18] = test: Test Example 3: weedkilling efficacy through soil treatment; N: chickweed; settings: treatment dosage 315 g/ha
Summary of the method: as §4

redroot pigweed [19] = test: Test Example 4: weedkilling efficacy by foliar treatment; L: redroot pigweed; settings: treatment dosage 315 g/ha
Summary of the method: as §3

crabgrass [20] = test: Test Example 3: weedkilling efficacy through soil treatment; D: crabgrass; settings: treatment dosage 315 g/ha
Summary of the method: as §4

soybean [21] = test: Test Example 4: foliar treatment, effect on crop; d: soybean; settings: treatment dosage 315 g/ha
Summary of the method: as §3

corn [22] = test: Test Example 3: soil treatment, effect on crop; c: corn; settings: treatment dosage 315 g/ha
Summary of the method: as §4

barnyard grass [23] = test: Test Example 2: weedkilling efficacy, growth period weed treatment in the submerged state; A: barnyard grass; settings: treatment dosage 252 g/ha
Summary of the method: as §1

Indian mallow [24] = test: Test Example 4: weedkilling efficacy by foliar treatment; K: Indian mallow; settings: treatment dosage 315 g/ha
Summary of the method: as §3

birds-eye speedwell [25] = test: Test Example 3: weedkilling efficacy through soil treatment; p: birds-eye speedwell; settings: treatment dosage 315 g/ha
Summary of the method: as §4

birds-eye speedwell [26] = test: Test Example 4: weedkilling efficacy by foliar treatment; p: birds-eye speedwell; settings: treatment dosage 315 g/ha
Summary of the method: as §3

oval-leafed pondweed [27] = test: Test Example 1: weedkilling efficacy, preemergent weed treatment in the submerged state; C: oval-leafed pondweed; settings: treatment dosage 252 g/ha
Summary of the method: as §2

barnyard grass [28] = test: Test Example 1: weedkilling efficacy, preemergent weed treatment in the submerged state; A: barnyard grass; settings: treatment dosage 252 g/ha
Summary of the method: as §2

wheat [29] = test: Test Example 4: foliar treatment, effect on crop; e: wheat; settings: treatment dosage 315 g/ha
Summary of the method: as §3

redroot pigweed [30] = test: Test Example 3: weedkilling efficacy through soil treatment; L: redroot pigweed; settings: treatment dosage 315 g/ha
Summary of the method: as §4

Italian ryegrass [31] = test: Test Example 4: weedkilling efficacy by foliar treatment; I: Italian ryegrass; settings: treatment dosage 315 g/ha
Summary of the method: as §3

black-grass [32] = test: Test Example 3: weedkilling efficacy through soil treatment; H: black-grass; settings: treatment dosage 315 g/ha
Summary of the method: as §4

catchweed = test: Test Example 4: weedkilling efficacy by foliar treatment; O: catchweed; settings: treatment dosage 315 g/ha
Summary of the method: as §3

green foxtail [33] = test: Test Example 4: weedkilling efficacy by foliar treatment; E: green foxtail; settings: treatment dosage 315 g/ha
Summary of the method: as §3

crabgrass [34] = test: Test Example 4: weedkilling efficacy by foliar treatment; D: crabgrass; settings: treatment dosage 315 g/ha
Summary of the method: as §3

Compound	B (bulrush) weedkilling efficacy grade (bulrush [1])	B (bulrush) weedkilling efficacy grade (bulrush [2])	b (directly sown rice) effect on crop grade (directly sown rice [3])	H (black-grass) weedkilling efficacy grade (black-grass [4])	K (Indian mallow) weedkilling efficacy grade (Indian mallow [5])	f (beet) effect on crop grade (beet [6])	e (wheat) effect on crop grade (wheat [7])	a (transplanted rice) effect on crop grade (transplanted rice)	M (fig-leafed goosefoot) weedkilling efficacy grade (fig-leafed goosefoot [8])	M (fig-leafed goosefoot) weedkilling efficacy grade (fig-leafed goosefoot [9])	f (beet) effect on crop grade (beet [10])	d (soybean) effect on crop grade (soybean [11])	I (Italian ryegrass) weedkilling efficacy grade (Italian ryegrass [12])	N (chickweed) weedkilling efficacy grade (chickweed [13])	C (oval-leafed pondweed) weedkilling efficacy grade (oval-leafed pondweed [14])	c (corn) effect on crop grade (corn [15])	b (directly sown rice) effect on crop grade (directly sown rice [16])	E (green foxtail) weedkilling efficacy grade (green foxtail [17])	N (chickweed) weedkilling efficacy grade (chickweed [18])	L (redroot pigweed) weedkilling efficacy grade (redroot pigweed [19])	also measured
CC1=C(c2ccccc2)C(=O)N(C(C)(C)C(=O)Nc2cccc(Cl)n2)CO1 [B-2-29]	5 (weed kill ratio 90% or more, (practically complete withering))	5 (weed kill ratio 90% or more, (practically complete withering))	5 (weed kill ratio 90% or more, (practically complete withering))	5 (weed kill ratio 90% or more, (practically complete withering))	4 (weed kill ratio 70% or more, less than 90%)	4 (weed kill ratio 70% or more, less than 90%)	5 (weed kill ratio 90% or more, (practically complete withering))	0 (weed kill ratio 5% or less (practically no effect))	5 (weed kill ratio 90% or more, (practically complete withering))	4 (weed kill ratio 70% or more, less than 90%)	5 (weed kill ratio 90% or more, (practically complete withering))	3 (weed kill ratio 40% or more, less than 70%)	5 (weed kill ratio 90% or more, (practically complete withering))	5 (weed kill ratio 90% or more, (practically complete withering))	5 (weed kill ratio 90% or more, (practically complete withering))	4 (weed kill ratio 70% or more, less than 90%)	5 (weed kill ratio 90% or more, (practically complete withering))	5 (weed kill ratio 90% or more, (practically complete withering))	5 (weed kill ratio 90% or more, (practically complete withering))	5 (weed kill ratio 90% or more, (practically complete withering))	D (crabgrass) weedkilling efficacy grade (crabgrass [20]): 5 (weed kill ratio 90% or more, (practically complete withering)); d (soybean) effect on crop grade (soybean [21]): 5 (weed kill ratio 90% or more, (practically complete withering)); c (corn) effect on crop grade (corn [22]): 0 (weed kill ratio 5% or less (practically no effect)); A (barnyard grass) weedkilling efficacy grade (barnyard grass [23]): 5 (weed kill ratio 90% or more, (practically complete withering)); K (Indian mallow) weedkilling efficacy grade (Indian mallow [24]): 5 (weed kill ratio 90% or more, (practically complete withering)); P (birds-eye speedwell) weedkilling efficacy grade (birds-eye speedwell [25]): 5 (weed kill ratio 90% or more, (practically complete withering)); P (birds-eye speedwell) weedkilling efficacy grade (birds-eye speedwell [26]): 4 (weed kill ratio 70% or more, less than 90%); C (oval-leafed pondweed) weedkilling efficacy grade (oval-leafed pondweed [27]): 5 (weed kill ratio 90% or more, (practically complete withering)); A (barnyard grass) weedkilling efficacy grade (barnyard grass [28]): 5 (weed kill ratio 90% or more, (practically complete withering)); e (wheat) effect on crop grade (wheat [29]): 5 (weed kill ratio 90% or more, (practically complete withering)); L (redroot pigweed) weedkilling efficacy grade (redroot pigweed [30]): 4 (weed kill ratio 70% or more, less than 90%); I (Italian ryegrass) weedkilling efficacy grade (Italian ryegrass [31]): 5 (weed kill ratio 90% or more, (practically complete withering)); H (black-grass) weedkilling efficacy grade (black-grass [32]): 5 (weed kill ratio 90% or more, (practically complete withering)); O (catchweed) weedkilling efficacy grade (catchweed): 4 (weed kill ratio 70% or more, less than 90%); E (green foxtail) weedkilling efficacy grade (green foxtail [33]): 5 (weed kill ratio 90% or more, (practically complete withering)); D (crabgrass) weedkilling efficacy grade (crabgrass [34]): 5 (weed kill ratio 90% or more, (practically complete withering))
CC1=C(c2ccccc2)C(=O)N(C(C)(C)C(=O)Nc2cccc(Br)n2)CO1 [B-2-31]	5 (weed kill ratio 90% or more, (practically complete withering))	5 (weed kill ratio 90% or more, (practically complete withering))	5 (weed kill ratio 90% or more, (practically complete withering))	5 (weed kill ratio 90% or more, (practically complete withering))	0 (weed kill ratio 5% or less (practically no effect))	4 (weed kill ratio 70% or more, less than 90%)	5 (weed kill ratio 90% or more, (practically complete withering))	0 (weed kill ratio 5% or less (practically no effect))	4 (weed kill ratio 70% or more, less than 90%)	4 (weed kill ratio 70% or more, less than 90%)	5 (weed kill ratio 90% or more, (practically complete withering))	0 (weed kill ratio 5% or less (practically no effect))	5 (weed kill ratio 90% or more, (practically complete withering))	5 (weed kill ratio 90% or more, (practically complete withering))	0 (weed kill ratio 5% or less (practically no effect))	4 (weed kill ratio 70% or more, less than 90%)	5 (weed kill ratio 90% or more, (practically complete withering))	5 (weed kill ratio 90% or more, (practically complete withering))	5 (weed kill ratio 90% or more, (practically complete withering))	5 (weed kill ratio 90% or more, (practically complete withering))	D (crabgrass) weedkilling efficacy grade (crabgrass [20]): 5 (weed kill ratio 90% or more, (practically complete withering)); d (soybean) effect on crop grade (soybean [21]): 5 (weed kill ratio 90% or more, (practically complete withering)); c (corn) effect on crop grade (corn [22]): 0 (weed kill ratio 5% or less (practically no effect)); A (barnyard grass) weedkilling efficacy grade (barnyard grass [23]): 5 (weed kill ratio 90% or more, (practically complete withering)); K (Indian mallow) weedkilling efficacy grade (Indian mallow [24]): 5 (weed kill ratio 90% or more, (practically complete withering)); P (birds-eye speedwell) weedkilling efficacy grade (birds-eye speedwell [25]): 5 (weed kill ratio 90% or more, (practically complete withering)); P (birds-eye speedwell) weedkilling efficacy grade (birds-eye speedwell [26]): 4 (weed kill ratio 70% or more, less than 90%); C (oval-leafed pondweed) weedkilling efficacy grade (oval-leafed pondweed [27]): 5 (weed kill ratio 90% or more, (practically complete withering)); A (barnyard grass) weedkilling efficacy grade (barnyard grass [28]): 5 (weed kill ratio 90% or more, (practically complete withering)); e (wheat) effect on crop grade (wheat [29]): 5 (weed kill ratio 90% or more, (practically complete withering)); L (redroot pigweed) weedkilling efficacy grade (redroot pigweed [30]): 5 (weed kill ratio 90% or more, (practically complete withering)); I (Italian ryegrass) weedkilling efficacy grade (Italian ryegrass [31]): 5 (weed kill ratio 90% or more, (practically complete withering)); H (black-grass) weedkilling efficacy grade (black-grass [32]): 5 (weed kill ratio 90% or more, (practically complete withering)); O (catchweed) weedkilling efficacy grade (catchweed): 3 (weed kill ratio 40% or more, less than 70%); E (green foxtail) weedkilling efficacy grade (green foxtail [33]): 5 (weed kill ratio 90% or more, (practically complete withering)); D (crabgrass) weedkilling efficacy grade (crabgrass [34]): 5 (weed kill ratio 90% or more, (practically complete withering))
